Values quoted from earlier work, collected in US6767915B2, “Substituted piperidines as melanocortin receptor agonists” (Merck & Co., Inc., priority 2000, dated 2004).

How the values were obtained:
erectile dysfunction = conditions: for duration of effect / onset of action: after an oral dose; for share of men/patients with adequate response: oral
[1] = system: psychogenic erectile dysfunction
[2] = in vivo, po

Compound: Cc1ccc(N(CC2=NCCN2)c2cccc(O)c2)cc1 [phentolamine]
- duration of effect (erectile dysfunction): 2 h
- onset of action (erectile dysfunction): 5 to 30 min
- share of men/patients with adequate response (erectile dysfunction): 35-40%

Compound: CCCc1nn(C)c2c(=O)[nH]c(-c3cc(S(=O)(=O)N4CCN(C)CC4)ccc3OCC)nc12 [sildenafil]
- duration of effect (erectile dysfunction): about 4 hours
- onset of action (erectile dysfunction): 30 to 60 min
- share of men/patients with adequate response (erectile dysfunction): about 70%

Compound: Ac-Nle-c[Asp-His-DPhe-Arg-Trp-Lys]-NH2 [MT-II]
- response rate ([1]; injected intramuscularly or subcutaneously, males with psychogenic erectile dysfunction): 75%
- duration of action ([1]; subcutaneous injection): approximately 2.5 hours
- time to onset of erection ([1]; subcutaneous injection): 10 to 20 min
- absorption into the systemic circulation [2]: not absorbed into the systemic circulation
